Reference: paper PMC9884808, “Pharmacokinetics, tissue distribution, and antitumor activity of a novel compound, NY-2, in non-small cell lung cancer” (Frontiers in Pharmacology, 2023)
Like-named read-outs stand apart in the source and are kept apart here. Marks after values point to notes of the source that are not given here.

Key:
HCT116 = assay: MTT cell viability assay; assay type: cell-based, human; design: key to IC50 HCT116: -: poor activity, cannot be unified; settings: for IC50: Homo sapiens, HCT-116, HCT116 colorectal cancer cells; for IC50 HCT116: HCT116 colorectal cancer cells
Experimental: (§1) The human colorectal cancer cell lines, HCT116 and LoVo, the breast cancer cell line, T47D, the hepatocellular carcinoma cell line, HepG2, the normal human liver cell line, HL7702, human umbilical vein endothelial cells (HUVECs), and the non-small cell lung cancer cell lines, A549, H1993, HCC827, H460, were purchased from the American Type Culture Collection (Manassas, VA, United States). Cell lines were cultured in the recommended RPMI-1640 medium (AE24464298, Hyclone, United States) and DMEM medium (AE29422278, Hyclone, United States) supplemented with 10% fetal bovine serum (FBS; JC63470, FB15015, Clark, United States) with 1% penicillin-streptomycin. Cells were maintained in an incubator at 37°C with 5% CO2 (HF90,Sanyo, Japan) and passaged every 48–72 h, after detaching with 0.25% trypsin (Sigma, United States). The compounds ZLDI-8 and NY-1 to -15 were synthesized in the laboratory of Dr. Huaiwei Ding in Shenyang Pharmaceutical University, and verified by high-performance liquid chromatography (purity >95%) for use in experiments (Supplementary Figure S1). Paclitaxel was purchased from MedChemExpress (HY-B0015, 99.97% purity, United States).
(§2) Cell viability was measured by the MTT assay. HCT116, HL7702, A549, H1993, HCC827, and H460 cells were dispensed into 96-well plates at a density of 1 × 10^5 cells/mL. After 24–48 h incubation, cells were treated with the compounds at different concentrations for the indicated periods. An assay kit (WLA073, Wanlei Co., Liaoning, China), was used according to the manufacturer’s instructions to measure LDH activity, The absorbance at 450 nm was measured with a microplate reader (Elx-800, Bio-Rad, China).
(§3) The preliminary antitumor activity of the series of ZLDI-8 derivatives, NY-1 to -15 was screened by the MTT cell viability assay. […] The antitumor activity of NY-2 on HCT116 cells was concentration- and time-dependent, and slightly better than that of the original compound, ZLDI-8.

LoVo = assay: MTT cell viability assay; assay type: cell-based, human; design: key to IC50 LoVo: -: poor activity, cannot be unified; settings: LoVo colorectal cancer cells; for IC50: Homo sapiens
Experimental: as §1, §2, §3

T47D = assay: MTT cell viability assay; assay type: cell-based, human; design: key to IC50 T47D: -: poor activity, cannot be unified; settings: T47D breast cancer cells; for IC50: Homo sapiens
Experimental: as §1, §2, §3

HepG2 = assay: MTT cell viability assay; assay type: cell-based, human; design: key to IC50 HepG2: -: poor activity, cannot be unified; settings: HepG2 hepatocellular carcinoma cells; for IC50: Homo sapiens
Experimental: as §1, §2, §3

A549 cells = settings: 28 days, NY-2 6 mg/kg, paclitaxel 1 mg/kg; for Lung metastasis of nude mice, number of mice (%): six mice per group, model 5 mice (83.3%)
Experimental: The experimental groups included the normal (no tumor cells, vehicle) group, the model (tumor cells, vehicle) group, NY-2-treated, and paclitaxel-treated groups, with six mice in each group. After 7 days for adaptation, 200 µL of A549 cells (2× 10^6 cells/mice) in serum-free medium were injected into the tail vein except for those in the normal group. Drug or vehicle administration via tail vein was started on the next day. The normal group and model group were given the same amount of sterile water containing 1% DMSO and 1% Tween as vehicle control. […] Injections were done every other day. The general conditions of the nude mice, with regard to activity and food ingestion, were observed every day, and their body weight was measured every other day.
KM mice were treated with ZLDI-8 or NY-2 by tail vein injection (6 mg/kg) for 7 days, then the mice were euthanized and liver and kidney tissues were removed and sectioned. For the experiment with BALB/c nude mice, the tail vein injections of NY-2 (6 mg/kg) were continued for 28 days, and the lungs, tumor, heart, liver, and kidney were removed. […] Sections for staining were dewaxed with xylene and then rehydrated, and hematoxylin-eosin staining was performed, after which the sections were again dehydrated in ethanol and cleared with xylene before being mounted on a slide, cover-slipped and examined microscopically. The remainder of the tumors and tissues was frozen in liquid nitrogen for other studies.

SMILES	IC50 (HCT116) [µM]	IC50 (HepG2) [µM]	IC50 (T47D) [µM]	IC50 HepG2 (HepG2)	IC50 (LoVo) [µM]	other results
O=C1NC(=O)C(=Cc2cn(CCOc3cccc(C(F)(F)F)c3)c3ccccc23)C(=O)N1 [NY-9]	35.3	85.2				IC50 LoVo (LoVo): -; IC50 T47D (T47D): -
O=C1NC(=O)C(=Cc2cn(CCOc3ccc(Cl)cc3Cl)c3ccccc23)C(=O)N1 [NY-12]	20		40.4	-		IC50 LoVo (LoVo): -
Cc1ccc(OCCn2c(C)c(C=C3C(=O)NC(=O)NC3=O)c3ccccc32)c(C)c1 [NY-1]		26.2				IC50 HCT116 (HCT116): -; IC50 LoVo (LoVo): -; IC50 T47D (T47D): -
Cc1c(C=C2C(=O)NC(=O)NC2=O)c2ccccc2n1CCOc1cccc(C(F)(F)F)c1 [NY-8]			10.3	-	38.1	IC50 HCT116 (HCT116): -
Cc1c(C=C2C(=O)NC(=S)NC2=O)c2ccccc2n1CCOc1cccc(C(F)(F)F)c1 [NY-7]	12.5	77.4	21.8		20.6	
Cc1c(C=C2C(=O)NC(=S)NC2=O)c2ccccc2n1CCOc1ccc(Cl)cc1Cl [NY-10]	26	66.7	23.3		86.4	
O=C1NC(=O)C(=Cc2cn(CCOc3cccc(F)c3)c3ccccc23)C(=O)N1 [NY-6]	38.8	40.8	53.7		28.7	
Cc1c(C=C2C(=O)NC(=S)NC2=O)c2ccccc2n1CCOc1cccc2ccccc12 [NY-13]	12.8	33.1	5.15		43.2	
Cc1c(C=C2C(=O)NC(=O)NC2=O)c2ccccc2n1CCOc1cccc2ccccc12 [NY-14]			74.3	-		IC50 HCT116 (HCT116): -; IC50 LoVo (LoVo): -
O=C1NC(=O)C(=Cc2cn(CCOc3cccc4ccccc34)c3ccccc23)C(=O)N1 [NY-15]	11.3	13.5	21.4		124	
Cc1c(C=C2C(=O)NC(=O)NC2=O)c2ccccc2n1CCOc1ccc(F)cc1 [NY-3]	43.7			-	21.4	IC50 T47D (T47D): -
Cc1c(C=C2C(=O)NC(=O)NC2=O)c2ccccc2n1CCOc1cccc(F)c1 [NY-5]	11.4	37.2	34		23.5	
Cc1c(C=C2C(=O)NC(=O)NC2=O)c2ccccc2n1CCOc1ccc(Cl)cc1Cl [NY-11]		90.1	16.6		23.2	IC50 HCT116 (HCT116): -
CC(=O)O[C@H]1C(=O)[C@@]2(C)[C@H]([C@H](OC(=O)c3ccccc3)[C@]3(O)C[C@H](OC(=O)[C@H](O)[C@@H](NC(=O)c4ccccc4)c4ccccc4)C(C)=C1C3(C)C)[C@]1(OC(C)=O)CO[C@@H]1C[C@@H]2O [Paclitaxel, reference compound]						Body weight before dissection (A549 cells; nude mice with A549 lung metastasis, tail vein every other day, n=6, mean ± SEM): 22.72 ± 0.32 g; Kidney as a proportion of body weight (A549 cells; nude mice, n=6, mean ± SEM): 1.74 ± 0.03 10^-2; Liver as a proportion of body weight (A549 cells; nude mice, n=6, mean ± SEM): 5.45 ± 0.20# 10^-2; Lung as a proportion of body weight (A549 cells; nude mice, n=6, mean ± SEM): 0.64 ± 0.02 10^-2; Quality of the heart (A549 cells; nude mice, n=6, mean ± SEM): 0.14 ± 0.01 g; Quality of the kidney (A549 cells; nude mice, n=6, mean ± SEM): 0.41 ± 0.01 g; Quality of the liver (A549 cells; nude mice, n=6, mean ± SEM): 1.29 ± 0.06 g; Quality of the lung (A549 cells; nude mice, n=6, mean ± SEM): 0.15 ± 0.01 g; infiltration of A549 cells in the lung tissue (H&E) (A549 cells; nude mice): no infiltration of A549 cells in the lung tissue; Lung metastasis of nude mice, number of mice (%) (A549 cells): 0 (0); Lung metastasis of nude mice, number of mice (%) (A549 cells; listed as paclitaxel): No metastatic tumors were found
Cc1c(C=C2C(=O)NC(=S)NC2=O)c2ccccc2n1CCOc1cccc(F)c1 [NY-4]	27.5		25.4	-	41.8	
